Measurements published in patent publication US8507219B2, “Method of treating inflammation with statins” (MUSC Foundation for Research Development, priority 1997, dated 2013).

Assays:
[1] = X-ALD patients; cited from earlier work
[2] = system: ceramide production in rat primary astrocytes; assay: Degradation of sphingomyelin to ceramide (DAG kinase assay, HPTLC) in rat primary astrocytes; assay type: cell-based
Procedure: Lipid extraction Approximately 1.0×10^6 cells were exposed to different cytokines in the presence or absence of antioxidants for different periods and lipids were extracted according to the methods described by Welsh (1996).
Quantification of sphingomyelin by HPTLC and densitometry Sphingomyelin was separated from total lipid extracts by HPTLC (LPK-plates from Whatman Labsales, USA) as described (Ganser et al., 1988) for phospholipids with the modification, that the plate was overrun for 30 min during its development and was dried overnight in vacuum desicator. Sphingomyelin was quantitated by densitometric scanning using Imaging Densitometer (Model GS-670; Bio-Rad, USA) and software provided with the instrument by the manufacturer.
Quantification of ceramide levels by diacylglycerol kinase assay Ceramide content was quantified essentially according to Priess et al. using diacylglycerol (DAG) kinase and [γ-^32P]ATP (Priess et al., 1986). Briefly, dried lipids were solubilized in 20 μl of an octyl β-D-glucoside/cardiolipin solution (7.5% octyl β-D-glucoside, 5 mM cardiolipin in 1 mM DTPA) by sonication in a sonicator bath. […] The labeled ceramide 1-phosphate was resolved with a solvent system consisting of methyl acetate: n-propanol:chloroform:methanol:0.25% KCl in water:acetic-acid (100:100:100:40:36:2). A standard sample of ceramide was phosphorylated under identical conditions and developed in parallel. […] Quantification of ceramide 1-phosphate was carried out by autoradiography and densitometric scanning using Imaging Densitometer (Model GS-670; Bio-Rad, USA). Values are expressed either as arbitrary units (absorbance) or as percent change.
Lipid Extraction Approximately 1.0×10^6 cells were exposed to different cytokines in the presence or absence of antioxidants for different periods, and lipids were extracted according to the methods described by Welsh (1996).
Quantification of Sphingomyelin by High Performance TLC and Densitometry Sphingomyelin was separated from total lipid extracts by high performance TLC (LHPK plates from Whatman) as described by Ganser et al. (1988) for phospholipids with the following modification: the plate was overrun for 30 min during its development and was dried overnight in vacuum desiccator. Sphingomyelin was quantitated by densitometric scanning using Imaging Densitometer (model GS-670; Bio-Rad), and software was provided with the instrument by the manufacturer.
Quantification of Ceramide Levels by Diacylglycerol Kinase Assay Ceramide content was quantified essentially according to Priess et al. (1986) using diacylglycerol (DAG) kinase and [γ-^32P]ATP. Briefly, dried lipids were solubilized in 20 μl of an octyl β-D-glucoside/cardiolipin solution (7.5% octyl β-D-glucoside, 5 mM cardiolipin in 1 mM DTPA) by sonication in a sonicator bath. […] The labeled ceramide-1-phosphate was resolved with a solvent system consisting of methyl acetate:n-propyl alcohol:chloroform:methanol, 0.25% KCl in water:acetic acid (100:100:100:40:36:2). A standard sample of ceramide was phosphorylated under identical conditions and developed in parallel. […] Quantification of ceramide-1-phosphate was carried out by autoradiography and densitometric scanning using Imaging Densitometer (model GS-670; Bio-Rad). Values are expressed either as arbitrary units (absorbance) or as percent change.

[3] = system: rat primary oligodendrocytes; assay: Apoptosis (DNA fragmentation, laddering) in rat primary oligodendrocytes; assay type: cell-based; conditions: 10 mM NAC 1 h; diamide 0.5 mM, TNF-α 50 ng/ml or C2-ceramide; 12 h
Procedure: Detection of DNA fragmentation Cells (1×10^6) were pelleted in an eppendorf tube by centrifugation at 1,000 rpm for 5 min, washed with PBS (pH 7.4), resuspended gently in 50 μl of a lysis buffer [200 mM NaCl, 10 mM Tris-HCl (pH 8.0), 40 mM EDTA (pH 8.0), 0.5% SDS, 400 ng RNase A/μl] and incubated at 37° C. for 1 h. The lysate received 200 μl of the digestion buffer [200 mM NaCl, 10 mM Tris-HCl (pH 8.0), 0.5% SDS, 125 ng proteinase K/μl]. The contents were mixed by inversion several times and then incubated at 50° C. for 2 h. An equal volume of a mixture phenol (pH 8.0), chloroform and isoamyl alcohol (25:24:1, v/v) was added, gently mixed for 10 min, and stored at room temperature for 2 min. […] The gel was stained with ethidium bromide and DNA-intercalated ethidium fluorescence was photographed on Polaroid film 665 (P/N) using an orange filter. […]
Detection of DNA Fragmentation Cells (1×10^6) were pelleted in an Eppendorf tube by centrifugation at 1000 rpm for 5 min, washed with phosphate-buffered saline, pH 7.4, resuspended gently in 50 μl of a lysis buffer (200 mM NaCl, 10 mM Tris-HCl, pH 8.0, 40 mM EDTA, pH 8.0, 0.5% SDS, 400 ng of RNase A/μl), and incubated at 37° C. for 1 h. […] The gel was stained with ethidium bromide, and DNA-intercalated ethidium fluorescence was photographed on Polaroid film 665 (P/N) using an orange filter. […]

[4] = system: intracellular GSH in rat primary astrocytes; assay: Intracellular GSH / GSSG in rat primary astrocytes; assay type: cell-based; conditions: 10 mM NAC 1 h; TNF-α or IL-1β 50 ng/ml; diamide 0.5 mM
Procedure: Measurement of reduced glutathione (GSH) concentration in rat primary astrocytes Concentration of intracellular GSH was measured using a colorimetric assay kit for GSH from RandD, USA. Briefly, 2×10^6 cells were homogenized in 500 μl of ice-cold 5% metaphosphoric acid and centrifuged at 3000 g for 10 min. Supernatants were used to assay GSH using 4-chloro-1-methyl-7-trifluoromethyl-quinolinium methylsulfate and 30% NaOH at 400 nm.
Measurement of GSH (Reduced Glutathione) and GSSG Oxidized Glutathione Concentration of intracellular reduced GSH was measured using a calorimetric assay kit for GSH from R & D Systems. Briefly, 2×10^6 cells were homogenized in 500 μl of ice-cold 5% metaphosphoric acid and centrifuged at 3000×g for 10 min. Supernatants were used to assay GSH using 4-chloro-1-methyl-7-trifluoromethylquinolinium methylsulfate and 30% NaOH at 400 nm. Concentration of GSSG was determined according to the method of Griffith (1980) after derivatization with 2-vinylpyridine for 30 min at room temperature.

SMILES	reduction of VLCFA [1]	increase in ceramide production [2]	ceramide formation and DNA fragmentation / apoptosis [3]	intracellular level of GSH / GSSG [4]
CCCCCCCC/C=C\CCCCCCCC(=O)OCC(COC(=O)CCCCCCC/C=C\CCCCCCCC)OC(=O)CCCCCCC/C=C\CCCCCCCC [trioleate]	50%	–	–	–
CN(C)C(=O)/N=N/C(=O)N(C)C [diamide]	–	about 7 fold	induced internucleosomal DNA fragmentation	increased the intracellular level of GSSG
